Read-outs that look alike come from different tables or passages of the source.
Legend:
[1] = Pharmacokinetic studies in the mouse (i.v. clearance, plasma levels); type: in vivo; conditions: CD-1, plasma, iv; mouse, 25 mg/kg
Outline: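 Male CD-1 mice (26-31 g) given 25 mg/kg i.v. via tail vein in 0.02M Tris (2.5 mg/ml), groups of 5 per timepoint from 2 to 120 min. Heparinized plasma deproteinated (perchloric acid or acetonitrile) and analysed by reverse-phase HPLC with UV or MS detection against plasma-spiked calibration (0.5 to 50 μg/ml).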

[2] = system: IL-1β production, LPS-challenged mice; test: In vivo acute assay for efficacy as anti-inflammatory agent: LPS-induced IL-1β production in mice; parameters: species or system mouse; conditions: Mus musculus, po, LPS challenged mice, compound PO, 50 mg/kg, read-out: percent inhibition of IL-1β production
Outline: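 CD1 mice (n=6) were challenged with LPS 20 mg/kg IP and given compound IP in olive oil:DMSO:ethanol (90:5:5) 1 h after LPS, or at the time of challenge for some analogs. Blood was taken 7 h after LPS and serum IL-1β was measured by ELISA. Oral gavage at 50 mg/kg was also tested.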

[3] = system: IL-1β, human whole blood; test: Whole blood assay for IL-1β production; type: cell-based; conditions: * = values obtained upon reassay, read-out: Whole human blood IC50
Outline: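 Human whole blood collected on Na2EDTA was treated with serially diluted compound in saline and then stimulated with LPS at 5.0 ng/ml final, for 16-18 h at 30 °C, in duplicate or triplicate. Plasma IL-1β was measured by ELISA at 1:200 dilution.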

[4] = 0 h, administered 0 h relative to time of LPS challenge
[5] = 2 h, administered −2 h relative to time of LPS challenge

Row | SMILES | clearance [1] [mL/min/kg] | melting point [°C] | inhibition at 50 mg/kg [2, 4] [%] | inhibition at 50 mg/kg ([2]; 1 h, administered +1 h relative to time of LPS challenge) [%] | inhibition at 50 mg/kg [2, 5] [%] | IC50 ([3]; Homo sapiens) [nM] | IC50 [3] [nM]
1 | Cc1ccccc1C(=O)N[C@H]1CCC(=O)N2CCC[C@@H](C(=O)N[C@H](C=O)CC(=O)O)N2C1=O [Compound 404] | 64 | 156 to 159 | 6 | 56 | 55 | 1100 | –
2 | CC(=O)Nc1cccc(C(=O)N[C@H]2CCC(=O)N3CCC[C@@H](C(=O)N[C@H](C=O)CC(=O)O)N3C2=O)c1 [Compound 450, [3S(1S,9S)]3-{9-[(3-Acetamido)benzamido]-6,10-dioxo-1,2,3,4,7,8,9,10-octahydro-6H-pyridazino[1,2-a][1,2]diazepine-1-carboxamido}-4-oxobutanoic acid] | 18 | 175 to 179 | 35 | – | 0 | 2200 | 1700
3 | O=C[C@H](CC(=O)O)NC(=O)[C@@H]1CCCN2C(=O)CC[C@H](NC(=O)c3cc4ccccc4[nH]3)C(=O)N12 [Compound 475, [3S(1S,9S)]3-[6,10-Dioxo-9-(indol-2-oylamino)-1,2,3,4,7,8,9,10-octahydro-6H-pyridazino[1,2-a][1,2]diazepine-1-carboxamido]-4-oxobutanoic acid] | 31 | 150 | 15 | – | 0 | 400 | 350

Source: patent US20120165319A1, “INHIBITORS OF INTERLEUKIN-1 BETA CONVERTING ENZYME” (VERTEX PHARMACEUTICALS INCORPORATED, priority 1995, published 2012)
